{"source": "BindingDB's records for doi:10.1016/j.bmcl.2012.11.020", "about": "(Glaxosmithkline, 2012)"}
{"target": "Serine/threonine-protein kinase B-raf (Homo sapiens, UniProt P15056)", "sequence (P15056 whole entry)": "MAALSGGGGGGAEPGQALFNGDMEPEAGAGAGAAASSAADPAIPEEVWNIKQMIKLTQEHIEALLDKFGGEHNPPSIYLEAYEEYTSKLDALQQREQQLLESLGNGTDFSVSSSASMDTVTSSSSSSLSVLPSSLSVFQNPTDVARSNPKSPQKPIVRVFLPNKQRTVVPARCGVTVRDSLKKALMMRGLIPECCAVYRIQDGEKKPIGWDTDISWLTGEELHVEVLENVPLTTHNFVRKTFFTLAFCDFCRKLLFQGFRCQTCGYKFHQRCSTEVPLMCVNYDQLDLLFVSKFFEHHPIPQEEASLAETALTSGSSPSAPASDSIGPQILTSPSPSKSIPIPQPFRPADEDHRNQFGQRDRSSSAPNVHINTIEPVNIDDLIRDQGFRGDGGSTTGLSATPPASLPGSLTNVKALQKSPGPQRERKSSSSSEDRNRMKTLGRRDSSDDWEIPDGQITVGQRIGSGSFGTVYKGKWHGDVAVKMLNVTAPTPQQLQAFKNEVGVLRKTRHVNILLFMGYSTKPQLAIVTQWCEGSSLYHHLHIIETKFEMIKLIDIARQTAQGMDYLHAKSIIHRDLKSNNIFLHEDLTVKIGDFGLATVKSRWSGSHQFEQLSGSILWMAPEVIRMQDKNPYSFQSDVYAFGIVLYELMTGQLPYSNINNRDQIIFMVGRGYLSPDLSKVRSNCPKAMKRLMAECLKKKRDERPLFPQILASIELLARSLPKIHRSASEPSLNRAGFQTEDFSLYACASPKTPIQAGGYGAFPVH", "assay": "Inhibition of B-Raf (unknown origin) expressed in mouse 3T3 cells co-expressing FLAG-tagged MEK1 assessed as inhibition of MEK1 phosphorylation after 2 hrs by ELISA", "units": {"IC50": "µM"}}
{"smiles": "Nc1ncc(-c2cccnc2)c2scc(-c3cccc(NC(=O)Nc4ccc(OCc5ccccc5)cc4)c3)c12", "IC50": "> 10"}
{"smiles": "COc1cccc(NC(=O)Nc2cccc(-c3csc4c(-c5cccnc5)cnc(N)c34)c2)c1", "IC50": 0.7}
{"smiles": "Nc1ncc(-c2cccnc2)c2scc(-c3cccc(NC(=O)NC4CCCCC4)c3)c12", "IC50": 4.1}
{"smiles": "Cc1noc(C)c1NC(=O)Nc1cccc(-c2csc3c(-c4cccnc4)cnc(N)c23)c1", "IC50": "> 10"}
{"smiles": "Nc1ncc(-c2cccnc2)c2scc(-c3cccc(NC(=O)C4CCCCC4)c3)c12", "IC50": "> 10"}
